System: A549 cells
Assay: DNR-mediated cytotoxicity, MTS assay
Type: cell-based
Settings: Homo sapiens, A549, 72 h, read-out: IC50 AVG
Protocol: Because DNR is a cytotoxic compound, the effectiveness of cystine liposomal DNR as an intracellular delivery system was assessed by relying on cytotoxicity measurements as a measure of DNR uptake. […] Cytotoxicity was measured in A549 cells following the addition of the aforementioned DNR formulations to the cells followed by an incubation period, and determination of cytotoxicity by using a MTS assay. Briefly, an MTS assay is a non radioactive cell proliferative assay of a tetrazolium compound (3-(4,5-dimethylthiazol-2-yl)-5-(3-carboxymethoxyphenyl)-2-(4-sulfophenyl)-2H-tetrazolium, inner salt; MTS) and the electron coupling reagent, phenazine methosulfate (PMS). MTS is bio-reduced by cells to a formazan compound by a reductase enzyme present in metabolically active cells. The absorbance of the formazan compound can be measured at 490 nm wavelength and is directly proportional to the number of living cells. The toxicity was determined using dose response curve to determine IC50. IC50 is the concentration of the test compound required to reduce light absorbance capacity of the cells by 50%.
MTS reagent was prepared by mixing 20% MTS and 1% PMS solution in RPMI 1640 medium of volume 8 ml. […] The amount of formazan was measured at 490 nm wavelength. […]

## COc1cccc2c1C(=O)c1c(O)c3c(c(O)c1C2=O)C[C@@](O)(C(C)=O)C[C@@H]3O[C@H]1C[C@H](N)[C@H](O)[C@H](C)O1 [Free DNR, daunorubicin]
  IC50: 15.2 µM
